# Measurements: patent US8183236B2, “Compounds with HIV-1 integrase inhibitory activity and use thereof as anti-HIV/AIDS therapeutics” (University of Southern California, priority 2007, dated 2012)
# Molecular target: T1, HIV-1 integrase (wild-type IN) (Human immunodeficiency virus type 1 group M subtype B, UniProt P12497)
# Test: HIV-1 integrase 3′-processing assay (32P-labeled 21-mer, gel)
# Assay type: biochemical
# Conditions: Table 53, structurally diverse compounds; read-out: IN inhibition activity 3′-processing
# Text: (§1) The oligonucleotides 21 top, 5′-[…]-3′ (SEQ ID NO:1) and 21 bot, 5′-[…]-3′ (SEQ ID NO:2) were purchased from Norris Cancer Center Core Facility (University of Southern California) and purified by UV shadowing on polyacrylamide gel. To analyze the extent of 3′-processing and strand transfer using 5′-end labeled substrates, 21 top was 5′-end labeled using T4 polynucleotide kinase (Epicentre, Madison, Wis.) and γ [^32P]-ATP (Amersham Biosciences or ICN). The kinase was heat-inactivated and 21 bot was added in 1.5-molar excess. The mixture was heated at 95° C., allowed to cool slowly to room temperature, and run through a spin 25 mini-column (USA Scientific) to separate annealed double-stranded oligonucleotide from unincorporated material.
# (§2) To determine the extent of 3′-processing and strand transfer, wild-type IN was preincubated at a final concentration of 200 nM with the inhibitor in reaction buffer (50 mM NaCl, 1 mM HEPES, pH 7.5, 50 μM EDTA, 50 μM dithiothreitol, 10% glycerol (w/v), 7.5 mM MnCl2, 0.1 mg/ml bovine serum albumin, 10 mM 2-mercaptoethanol, 10% dimethyl sulfoxide, and 25 mM MOPS, pH 7.2) at 30° C. for 30 min. Then, 20 nM of the 5′-end ^32P-labeled linear oligonucleotide substrate was added, and incubation was continued for an additional one hour. Reactions were quenched by the addition of an equal volume (16 μl) of loading dye (98% deionized formamide, 10 mM EDTA, 0.025% xylene cyanol and 0.025% bromophenol blue). An aliquot (5 μl) was electrophoresed on a denaturing 20% polyacrylamide gel (0.09 M tris-borate pH 8.3, 2 mM EDTA, 20% acrylamide, 8M urea).
# (§3) Gels were dried, exposed in a PhosphorImager cassette, and analyzed using a Typhoon 8610 Variable Mode Imager (Amersham Biosciences) and quantitated using ImageQuant 5.2. Percent inhibition (% I) was calculated using the following equation: %I=100×[1−(D−C)/(N−C)]
# (§4) where C, N, and D are the fractions of 21-mer substrate converted to 19-mer (3′-processing product) or strand transfer products for DNA alone, DNA plus IN, and IN plus drug, respectively. The IC50 values were determined by plotting the logarithm of drug concentration versus percent inhibition to obtain concentration that produced 50% inhibition. […]
row,Compound,IC50
1,CCOc1cc(CNc2nn[nH]n2)cc(Cl)c1OCc1ccc(Cl)cc1 [GLD19],> 100 µM
2,O=C(O)C(O)C(O)c1nc2cc3ccccc3cc2[nH]1 (stereo not drawn) [GLD20],> 100 µM
3,O=C(Nc1ccccc1C(=O)O)c1cccc(S(=O)(=O)Nc2ccc(Oc3ccccc3)cc2)c1 [GLD25],42 ± 10 µM
4,Cc1ccc2nc(-c3ccc(NC(=O)/C=C/C(=O)O)cc3)sc2c1 [GLD28],48 ± 19 µM
5,O=C(O)CN1C(=O)/C(=C2\SC(=S)N(C(Cc3ccccc3)C(=O)O)C2=O)c2ccccc21 (stereo not drawn) [GLD31],92 ± 17 µM
6,O=C(O)C1CCCCC1C(=O)Nc1ccc(Oc2cccc3ccccc23)cc1 (stereo not drawn) [GLD32],> 100 µM

# Same assay, conditions: Table 54; read-out: IN inhibition activity 3′-processing
row,Compound,IC50
1,CCOc1cc(N(CC)CC)ccc1/C=C1\C(=O)N(c2nnn[nH]2)N=C1C [GLD12A1],61 ± 8 µM
2,COc1cc(/C=C2\C(=O)N(c3nnn[nH]3)N=C2C)cc(Cl)c1OC [GLD12A2],5 ± 2 µM
3,CCOc1cc(/C=C2\C(=O)N(c3nnn[nH]3)N=C2C)ccc1OC [GLD12A3],75 ± 28 µM
4,CCOc1cc(/C=C2\C(=O)N(c3nnn[nH]3)N=C2C)cc(Cl)c1OCC [GLD12A4],7 ± 6 µM
5,CC1=NN(c2nnn[nH]2)C(=O)/C1=C\c1cc(Cl)c(O)c(Cl)c1 [GLD12A5],11 ± 3 µM
6,COc1ccc(/C=C2\C(=O)N(c3nnn[nH]3)N=C2C)cc1OCc1ccccc1Cl [GLD12],14 ± 7 µM

# Same assay, conditions: unit inferred; read-out: HIV-1 IN Inhibitory Activities 3′-processing
row,Compound,IC50
1,O=C(N/N=C1/C(=O)Nc2ccc(F)cc21)/C(=C/C=C/c1ccccc1)NC(=O)c1ccccc1 [Compound X231],60 µM
2,O=C(N/N=C/c1cc(Br)ccc1O)/C(=C/C=C/c1ccccc1)NC(=O)c1ccccc1 [Compound X234],90 µM
3,O=C(Nc1ccc(O)c(-c2nc3cc(Cl)ccc3o2)c1)c1cccnc1 [Compound X255],61 µM
4,O=C(COc1ccccc1[N+](=O)[O-])Nc1ccc(O)c(-c2nc3ccccc3s2)c1 [Compound X257],99 µM
5,CCOC(=O)c1c(-c2ccccc2)csc1NC(NC(=O)c1ccco1)C(=O)c1ccc(C)cc1 (stereo not drawn) [Example X88],> 100 µM
6,O=C(N/N=C1\C(=O)Nc2ccc(Br)cc21)/C(O)=C/C(=O)c1ccc(Cl)cc1 [Example X115],42 µM
7,COc1ccc(CCNC(=O)CC(=O)N/N=C/c2ccco2)cc1OC [Example X134],> 100 µM
8,O=C(Nc1ccccc1C(=O)O)c1cccc(S(=O)(=O)Nc2cccc([N+](=O)[O-])c2)c1 [Example X148],89 µM
9,O=C(/C=C/c1ccc(Cl)cc1)Nc1ccc(NC(=O)c2ccco2)cc1 [Example X159],90 µM
10,O=C(c1ccccc1)c1cc(Br)ccc1NC(=O)c1nc[nH]c1C(=O)O [Example X160],16 µM
11,O=C(O)C(Cc1c[nH]c2ccccc12)NS(=O)(=O)c1ccccc1[N+](=O)[O-] (stereo not drawn) [Example X182],88 µM
12,O=C(/C=C/c1ccco1)NC(=S)Nc1ccccc1O [Example X205],57 µM
13,Oc1ccccc1/C=N/CC(O)C/N=C/c1ccccc1O [Example X208],97 µM
14,O=C(N/N=C/c1ccc(/C=N/NC(=O)c2cc(O)cc(O)c2)cc1)c1cc(O)cc(O)c1 [Example X218],76 µM
15,Cc1c(C(c2ccc(O)c(O)c2)c2c(C)n(C)n(-c3ccccc3)c2=O)c(=O)n(-c2ccccc2)n1C [Example X219],89 µM

# Molecular target: T1, HIV-1 integrase (wild-type IN)
# Test: HIV-1 integrase strand transfer assay (32P-labeled 21-mer, gel)
# Assay type: biochemical
# Conditions: Table 53, structurally diverse compounds; read-out: IN inhibition activity Strand transfer
# Text: as §1, §2, §3, §4
row,Compound,IC50
1,CCOc1cc(CNc2nn[nH]n2)cc(Cl)c1OCc1ccc(Cl)cc1 [GLD19],52 ± 8 µM
2,O=C(O)C(O)C(O)c1nc2cc3ccccc3cc2[nH]1 (stereo not drawn) [GLD20],46 ± 12 µM
3,O=C(Nc1ccccc1C(=O)O)c1cccc(S(=O)(=O)Nc2ccc(Oc3ccccc3)cc2)c1 [GLD25],18 ± 3 µM
4,Cc1ccc2nc(-c3ccc(NC(=O)/C=C/C(=O)O)cc3)sc2c1 [GLD28],23 ± 4 µM
5,O=C(O)CN1C(=O)/C(=C2\SC(=S)N(C(Cc3ccccc3)C(=O)O)C2=O)c2ccccc21 (stereo not drawn) [GLD31],66 ± 17 µM
6,O=C(O)C1CCCCC1C(=O)Nc1ccc(Oc2cccc3ccccc23)cc1 (stereo not drawn) [GLD32],34 ± 7 µM

# Same assay, conditions: Table 54; read-out: IN inhibition activity Strand transfer
row,Compound,IC50
1,CCOc1cc(N(CC)CC)ccc1/C=C1\C(=O)N(c2nnn[nH]2)N=C1C [GLD12A1],65 ± 8 µM
2,COc1cc(/C=C2\C(=O)N(c3nnn[nH]3)N=C2C)cc(Cl)c1OC [GLD12A2],4 ± 2 µM
3,CCOc1cc(/C=C2\C(=O)N(c3nnn[nH]3)N=C2C)ccc1OC [GLD12A3],59 ± 13 µM
4,CCOc1cc(/C=C2\C(=O)N(c3nnn[nH]3)N=C2C)cc(Cl)c1OCC [GLD12A4],4 ± 2 µM
5,CC1=NN(c2nnn[nH]2)C(=O)/C1=C\c1cc(Cl)c(O)c(Cl)c1 [GLD12A5],13 ± 11 µM
6,COc1ccc(/C=C2\C(=O)N(c3nnn[nH]3)N=C2C)cc1OCc1ccccc1Cl [GLD12],5 ± 3 µM

# Same assay, conditions: unit inferred; read-out: HIV-1 IN Inhibitory Activities Strand transfer
row,Compound,IC50
1,O=C(N/N=C1/C(=O)Nc2ccc(F)cc21)/C(=C/C=C/c1ccccc1)NC(=O)c1ccccc1 [Compound X231],38 µM
2,O=C(N/N=C/c1cc(Br)ccc1O)/C(=C/C=C/c1ccccc1)NC(=O)c1ccccc1 [Compound X234],23 µM
3,O=C(Nc1ccc(O)c(-c2nc3cc(Cl)ccc3o2)c1)c1cccnc1 [Compound X255],10 µM
4,O=C(COc1ccccc1[N+](=O)[O-])Nc1ccc(O)c(-c2nc3ccccc3s2)c1 [Compound X257],80 µM
5,CCOC(=O)c1c(-c2ccccc2)csc1NC(NC(=O)c1ccco1)C(=O)c1ccc(C)cc1 (stereo not drawn) [Example X88],79 µM
6,O=C(N/N=C1\C(=O)Nc2ccc(Br)cc21)/C(O)=C/C(=O)c1ccc(Cl)cc1 [Example X115],28 µM
7,COc1ccc(CCNC(=O)CC(=O)N/N=C/c2ccco2)cc1OC [Example X134],90 µM
8,O=C(Nc1ccccc1C(=O)O)c1cccc(S(=O)(=O)Nc2cccc([N+](=O)[O-])c2)c1 [Example X148],90 µM
9,O=C(/C=C/c1ccc(Cl)cc1)Nc1ccc(NC(=O)c2ccco2)cc1 [Example X159],91 µM
10,O=C(c1ccccc1)c1cc(Br)ccc1NC(=O)c1nc[nH]c1C(=O)O [Example X160],17 µM
11,O=C(O)C(Cc1c[nH]c2ccccc12)NS(=O)(=O)c1ccccc1[N+](=O)[O-] (stereo not drawn) [Example X182],56 µM
12,O=C(/C=C/c1ccco1)NC(=S)Nc1ccccc1O [Example X205],28 µM
13,Oc1ccccc1/C=N/CC(O)C/N=C/c1ccccc1O [Example X208],61 µM
14,O=C(N/N=C/c1ccc(/C=N/NC(=O)c2cc(O)cc(O)c2)cc1)c1cc(O)cc(O)c1 [Example X218],56 µM
15,Cc1c(C(c2ccc(O)c(O)c2)c2c(C)n(C)n(-c3ccccc3)c2=O)c(=O)n(-c2ccccc2)n1C [Example X219],31 µM
